Reference: patent US20240002416A1 (Rheinische-Friedrich-Wilhelms-Universität Bonn, priority 2020, published 2024)
Like-named read-outs stand apart in the source and are kept apart here.

Tests used:
human MRGPRX4-83L [1] = molecular target: T1, human MRGPRX4-83L (Homo sapiens, UniProt Q96LA9); test: β-arrestin assay (CHO β-arrestin ARMS1-ProLink 2 human MRGPRX4 83L); assay type: cell-based; settings: for Emax: efficacy based on maximal effect of 100 nM B-16 (set as 100%), read-out: Emax; for EC50: β-arrestin recruitment, CHO cells, MRGPRX4-83L, read-out: EC50 ± SEM
T1 construct: host or cells: CHO β-arrestin cells
Procedure: (§1) For β-arrestin recruitment assays, recombinant Chinese hamster ovary (CHO) cells expressing the human MRGPRX4 were used (DiscoverX/Eurofins) which allowed to measure β-galactosidase complementation upon β-arrestin recruitment. For calcium mobilization assays, recombinant astrocytes expressing MRGPX4-83L, or LN229 glioblastoma cells natively expressing the MRGPRX4-83S, were used.
(§2) The assays were performed as previously described for other rhodopsin-like GPCRs (Müller, C.E.; 8-Benzamidochromen-4-one-2-carboxylic acids: potent and selective agonists for the orphan G protein-coupled receptor GPR35. J. Med. Chem. 2013, 56:5182-97; Müller, C.E. Molecular Recognition of Agonists and Antagonists by the Nucleotide-Activated G Protein-Coupled P2Y2 Receptor. J. Med. Chem. 2017, 60:8425-8440).

MRGPRX4-83S = MRGPRX4-83S (Homo sapiens, UniProt Q96LA9, L83S); test: β-arrestin assay (CHO β-arrestin human MRGPRX4-83S); assay type: cell-based; set-up: host or cells: CHO β-arrestin cells; settings: for Emax: efficacy based on 100 nM B-16 (set as 100%), read-out: Emax; for EC50: β-arrestin recruitment, CHO cells, MRGPRX4-83S, read-out: EC50 ± SEM
Procedure: as §1, §2

human MRGPRX4-83L [2] = molecular target: T1, human MRGPRX4-83L; test: Calcium assay (human MRGPRX4 83L), recombinant astrocytes; assay type: cell-based; settings: for EC50: calcium mobilization, MRGPRX4-83L, read-out: EC50 ± SEM; for Emax: efficacy based on maximal effect of 1 μM B-16 (set as 100%), read-out: Emax
Procedure: as §1, §2

[3] = Table 1, means of 3-4 experiments

T1 sequence (Q96LA9 whole entry): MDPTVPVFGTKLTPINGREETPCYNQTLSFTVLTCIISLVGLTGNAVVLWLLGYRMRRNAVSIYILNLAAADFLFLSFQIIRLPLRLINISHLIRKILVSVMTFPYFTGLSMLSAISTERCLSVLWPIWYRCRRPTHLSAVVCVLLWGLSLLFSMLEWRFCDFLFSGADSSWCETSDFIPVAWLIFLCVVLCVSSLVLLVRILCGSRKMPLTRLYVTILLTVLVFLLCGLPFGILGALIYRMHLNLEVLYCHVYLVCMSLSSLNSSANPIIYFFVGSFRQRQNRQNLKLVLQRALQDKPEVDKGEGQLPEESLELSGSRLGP
MRGPRX4-83S, sequence (Q96LA9 whole entry L83S): as the sequence (Q96LA9 whole entry) above, with L83S counted along it

Row | melting point [°C] | Emax (human MRGPRX4-83L [1]; Table 1) [%] | EC50 (human MRGPRX4-83L [1]; [3]) [nM] | Emax (MRGPRX4-83S; Table 2) [%] | EC50 (MRGPRX4-83S; Table 2) [nM] | EC50 (human MRGPRX4-83L [2]; Table 1) [nM] | Emax (human MRGPRX4-83L [2]; Table 1) [%] | Emax (human MRGPRX4-83L [1]; Table 4) [%] | EC50 (human MRGPRX4-83L [1]; Table 4) [nM] | EC50 (human MRGPRX4-83L [2]; Table 4) [nM] | Emax (human MRGPRX4-83L [2]; Table 4) [%] | Emax (MRGPRX4-83S; Table 3) [%] | EC50 (MRGPRX4-83S; Table 3) [nM] | SMILES
1 | 133 to 135 | – | – | – | – | – | – | – | – | – | – | 92 | 12.5 ± 1.3 | C#CCn1c(=O)c2c(nc(CCc3ccc(CC)cc3)n2CC2CCCC2)n(CCCCP(=O)(O)O)c1=O [B-42, (4-(7-(cyclopentylmethyl)-8-(4-ethylphenethyl)-2,6-dioxo-1-(prop-2-yn-1-yl)-1,2,6,7-tetrahydro-3H-purin-3-yl)butyl)phosphonic acid]
2 | 123 to 125 | – | – | – | – | – | – | 97 | 6.85 ± 7.18 | 1.16 ± 0.26 | 118 | – | – | C#CCn1c(=O)c2c(nc(CCc3ccccc3I)n2C(C)C)n(CCCCP(=O)(O)O)c1=O [B-47, (4-(8-(2-Iodophenethyl)-7-isopropyl-2,6-dioxo-1-(prop-2-yn-1-yl)-1,2,6,7-tetrahydro-3H-purin-3-yl)butyl)phosphonic acid]
3 | 219 to 221 | – | – | – | – | – | – | 93 | 1890 ± 280 | 604 ± 275 | 61 | – | – | C#CCn1c(=O)c2[nH]c(CCc3ccccc3Br)nc2n(CCCCCP(=O)(O)O)c1=O [B-52, (5-(8-(2-Bromophenethyl)-2,6-dioxo-1-(prop-2-yn-1-yl)-1,2,6,7-tetrahydro-3H-purin-3-yl)pentyl)phosphonic acid]
4 | 110 to 112 | – | – | – | – | – | – | 94 | 1070 ± 350 | 15.5 ± 1 | 113 | – | – | C#CCn1c(=O)c2c(nc(CCc3ccccc3Br)n2C)n(CCCCCP(=O)(O)O)c1=O [B-53, (5-(8-(2-Bromophenethyl)-7-methyl-2,6-dioxo-1-(prop-2-yn-1-yl)-1,2,6,7-tetrahydro-3H-purin-3-yl)pentyl)phosphonic acid]
5 | 146 to 148 | – | – | – | – | – | – | 96 | 534 ± 170 | 20.1 ± 4.1 | 103 | – | – | C#CCn1c(=O)c2c(nc(CCc3ccccc3Br)n2CC)n(CCCCCP(=O)(O)O)c1=O [B-54, (5-(8-(2-Bromophenethyl)-7-ethyl-2,6-dioxo-1-(prop-2-yn-1-yl)-1,2,6,7-tetrahydro-3H-purin-3-yl)pentyl)phosphonic acid]
6 | 221 to 223 | – | – | – | – | – | – | 91 | 576 ± 83 | 57.8 ± 18.9 | 102 | – | – | C#CCn1c(=O)c2c(nc(CCc3ccccc3Br)n2C)n(CCCCCCP(=O)(O)O)c1=O [B-56, (6-(8-(2-Bromophenethyl)-7-methyl-2,6-dioxo-1-(prop-2-yn-1-yl)-1,2,6,7-tetrahydro-3H-purin-3-yl)hexyl)phosphonic acid]
7 | 223 to 225 | – | – | – | – | – | – | 97 | 766 ± 357 | 474 ± 152 | 98 | – | – | C#CCn1c(=O)c2c(nc(CCc3ccccc3Br)n2CC)n(CCCCCCP(=O)(O)O)c1=O [B-57, (6-(8-(2-Bromophenethyl)-7-ethyl-2,6-dioxo-1-(prop-2-yn-1-yl)-1,2,6,7-tetrahydro-3H-purin-3-yl)hexyl)phosphonic acid]

The next lines start with the compound.

Row | SMILES | melting point [°C] | Emax (human MRGPRX4-83L [1]; Table 1) [%] | EC50 (human MRGPRX4-83L [1]; [3]) [nM] | Emax (MRGPRX4-83S; Table 2) [%] | EC50 (MRGPRX4-83S; Table 2) [nM] | EC50 (human MRGPRX4-83L [2]; Table 1) [nM] | Emax (human MRGPRX4-83L [2]; Table 1) [%] | Emax (human MRGPRX4-83L [1]; Table 4) [%] | EC50 (human MRGPRX4-83L [1]; Table 4) [nM] | EC50 (human MRGPRX4-83L [2]; Table 4) [nM] | Emax (human MRGPRX4-83L [2]; Table 4) [%] | Emax (MRGPRX4-83S; Table 3) [%] | EC50 (MRGPRX4-83S; Table 3) [nM]
8 | C#CCn1c(=O)c2[nH]c(CCc3ccccc3Br)nc2n(CCCCP(=O)(O)O)c1=O [B-8, (4-(8-(2-Bromophenethyl)-2,6-dioxo-1-(prop-2-yn-1-yl)-1,2,6,7-tetrahydro-3H-purin-3-yl)butyl)phosphonic acid] | 209 to 212 | 98 | 243 ± 45 | 143 | 3.15 ± 0.82 | 22.7 ± 7.2 | 114 | – | – | – | – | – | –
9 | C#CCn1c(=O)c2[nH]c(CCc3ccccc3Cl)nc2n(CCCCP(=O)(O)O)c1=O [B-9, (4-(8-(2-Chlorophenethyl)-2,6-dioxo-1-(prop-2-yn-1-yl)-1,2,6,7-tetrahydro-3H-purin-3-yl)butyl)phosphonic acid] | 207 to 209 | 107 | 1260 ± 270 | 116 | 3.45 ± 0.28 | 55.2 ± 1.7 | 107 | – | – | – | – | – | –
10 | C#CCn1c(=O)c2c(nc(CCc3ccccc3Br)n2CCC)n(CCCCP(=O)(O)O)c1=O [B-22, (4-(8-(2-Bromophenethyl)-2,6-dioxo-1-(prop-2-yn-1-yl)-7-propyl-1,2,6,7-tetrahydro-3H-purin-3-yl)butyl)phosphonic acid] | 178 to 181 | 176 | 208 ± 49 | – | – | 17.8 ± 6.2 | 119 | – | – | – | – | – | –
11 | C#CCn1c(=O)c2c(nc(CCc3ccccc3Br)n2Cc2ccccc2)n(CCCCP(=O)(O)O)c1=O [B-23, (4-(7-Benzyl-8-(2-bromophenethyl)-2,6-dioxo-1-(prop-2-yn-1-yl)-1,2,6,7-tetrahydro-3H-purin-3-yl)butyl)phosphonic acid] | 126 to 129 | 164 | 59.9 ± 12.8 | – | – | 5.03 ± 1.59 | 103 | – | – | – | – | – | –
12 | C#CCn1c(=O)c2[nH]c(CCc3ccccc3F)nc2n(CCCCP(=O)(O)O)c1=O [B-24, (4-(8-(2-Fluorophenethyl)-2,6-dioxo-1-(prop-2-yn-1-yl)-1,2,6,7-tetrahydro-3H-purin-3-yl)butyl) phosphonic acid] | 239 to 241 | – | – | – | – | – | – | 98 | 8190 ± 1810 | 1420 ± 290 | 100 | – | –
13 | C#CCn1c(=O)c2[nH]c(CCc3ccccc3I)nc2n(CCCCP(=O)(O)O)c1=O [B-25, (4-(8-(2-Iodophenethyl)-2,6-dioxo-1-(prop-2-yn-1-yl)-1,2,6,7-tetrahydro-3H-purin-3-yl)butyl) phosphonic acid] | 227 to 229 | – | – | – | – | – | – | 96 | 381 ± 112 | 43.1 ± 9.4 | 103 | – | –
14 | C#CCn1c(=O)c2nc(CCc3ccc(Br)cc3)[nH]c2n(CCCCP(=O)(O)O)c1=O [B-26, (4-(8-(4-Bromophenethyl)-2,6-dioxo-1-(prop-2-yn-1-yl)-1,2,6,9-tetrahydro-3H-purin-3-yl)butyl) phosphonic acid] | 206 to 208 | – | – | – | – | – | – | 70 | 2740 ± 580 | 187 ± 39 | 79 | – | –
15 | C#CCn1c(=O)c2[nH]c(CCc3ccc(-c4ccccc4)cc3)nc2n(CCCCP(=O)(O)O)c1=O [B-27, (4-(8-(2-([1,1′-Biphenyl]-4-yl)ethyl)-2,6-dioxo-1-(prop-2-yn-1-yl)-1,2,6,7-tetrahydro-3H-purin-3-yl)butyl)phosphonic acid] | 212 to 214 | – | – | – | – | – | – | – | – | – | – | 68 | 36.7 ± 2.8
16 | C#CCn1c(=O)c2c(nc(CCc3ccc(Br)cc3)n2C)n(CCCCP(=O)(O)O)c1=O [B-29, (4-(8-(4-Bromophenethyl)-7-methyl-2,6-dioxo-1-(prop-2-yn-1-yl)-1,2,6,7-tetrahydro-3H-purin-3-yl)butyl)phosphonic acid] | 227 to 229 | – | – | – | – | – | – | 100 | 2440 ± 750 | 134 ± 13 | 45 | – | –
17 | C#CCn1c(=O)c2c(nc(CCc3ccccc3F)n2CC)n(CCCCP(=O)(O)O)c1=O [B-30, (4-(7-Ethyl-8-(2-fluorophenethyl)-2,6-dioxo-1-(prop-2-yn-1-yl)-1,2,6,7-tetrahydro-3H-purin-3-yl)butyl)phosphonic acid] | 197 to 199 | – | – | – | – | – | – | 96 | 262 ± 97 | 15.5 ± 12.5 | 97 | – | –
18 | C#CCn1c(=O)c2c(nc(CCc3ccc(Br)cc3)n2CC)n(CCCCP(=O)(O)O)c1=O [B-35, (4-(8-(4-Bromophenethyl)-7-ethyl-2,6-dioxo-1-(prop-2-yn-1-yl)-1,2,6,7-tetrahydro-3H-purin-3-yl)butyl)phosphonic acid] | 169 to 171 | – | – | – | – | – | – | 84 | 521 ± 142 | 306 ± 111 | 41 | – | –
19 | C#CCn1c(=O)c2c(nc(CCc3ccccc3Br)n2CC2CCCC2)n(CCCCP(=O)(O)O)c1=O [B-37, (4-(8-(2-Bromophenethyl)-7-(cyclopentylmethyl)-2,6-dioxo-1-(prop-2-yn-1-yl)-1,2,6,7-tetrahydro-3H-purin-3-yl)butyl)phosphonic acid] | 137 to 139 | – | – | – | – | – | – | 87 | 169 ± 23 | 89.2 ± 25.5 | 84 | – | –
20 | C#CCn1c(=O)c2[nH]c(CCc3ccccc3Br)nc2n(CCCCCCP(=O)(O)O)c1=O [B-55, (6-(8-(2-Bromophenethyl)-2,6-dioxo-1-(prop-2-yn-1-yl)-1,2,6,7-tetrahydro-3H-purin-3-yl)hexyl)phosphonic acid] | 225 to 227 | – | – | – | – | – | – | 98 | 857 ± 220 | 57.8 ± 18.9 | 94 | – | –
